Measured values as given in ChEMBL document CHEMBL3045868, “Synthesis and antibacterial activities of para-alkoxy phenyl--ketoaldehyde derivatives” (Med Chem Res, 2013).
Values after ≈ are worked out from the molar mass of the structure shown.

Columns and labels:
Helicobacter pylori [1] = assay: Antibacterial activity against Helicobacter pylori ATCC 11637 assessed as growth inhibition after 16 to 18 hr NCCLS agar dilution method; format: functional
Helicobacter pylori [2] = assay: Antibacterial activity against Helicobacter pylori 06-1 assessed as growth inhibition after 16 to 18 hr NCCLS agar dilution method; format: functional
Helicobacter pylori [3] = assay: Antibacterial activity against Helicobacter pylori 05-5 assessed as growth inhibition after 16 to 18 hr NCCLS agar dilution method; format: functional
Staphylococcus aureus = assay: Antibacterial activity against Staphylococcus aureus ATCC 25923 assessed as growth inhibition after 16 to 18 hr by NCCLS agar dilution method; format: functional
Helicobacter pylori [4] = assay: Antibacterial activity against Helicobacter pylori 06-2 assessed as growth inhibition after 16 to 18 hr NCCLS agar dilution method; format: functional
Escherichia coli = assay: Antibacterial activity against Escherichia coli ATCC 25922 assessed as growth inhibition after 16 to 18 hr NCCLS agar dilution method; format: functional
Helicobacter pylori [5] = assay: Antibacterial activity against Helicobacter pylori 05-12 assessed as growth inhibition after 16 to 18 hr NCCLS agar dilution method; format: functional
Helicobacter pylori [6] = assay: Antibacterial activity against Helicobacter pylori 06-5 assessed as growth inhibition after 16 to 18 hr NCCLS agar dilution method; format: functional
Helicobacter pylori [7] = assay: Antibacterial activity against Helicobacter pylori 05-14 assessed as growth inhibition after 16 to 18 hr NCCLS agar dilution method; format: functional
Helicobacter pylori [8] = assay: Antibacterial activity against Helicobacter pylori 06-6 assessed as growth inhibition after 16 to 18 hr NCCLS agar dilution method; format: functional
Helicobacter pylori [9] = assay: Antibacterial activity against Helicobacter pylori assessed as growth inhibition after 16 to 18 hr NCCLS agar dilution method; format: functional
Pseudomonas aeruginosa = assay: Antibacterial activity against Pseudomonas aeruginosa ATCC 27853 assessed as growth inhibition after 16 to 18 hr NCCLS agar dilution method; format: functional
Helicobacter pylori [10] = assay: Antibacterial activity against Helicobacter pylori 06-3 assessed as growth inhibition after 16 to 18 hr NCCLS agar dilution method; format: functional
Helicobacter pylori [11] = assay: Antibacterial activity against Helicobacter pylori 05-1 assessed as growth inhibition after 16 to 18 hr NCCLS agar dilution method; format: functional
Helicobacter pylori [12] = assay: Antibacterial activity against Helicobacter pylori 06-4 assessed as growth inhibition after 16 to 18 hr NCCLS agar dilution method; format: functional
Helicobacter pylori [13] = assay: Antibacterial activity against Helicobacter pylori 05-9 assessed as growth inhibition after 16 to 18 hr NCCLS agar dilution method; format: functional
Helicobacter pylori [14] = assay: Antibacterial activity against Helicobacter pylori 06-7 assessed as growth inhibition after 16 to 18 hr NCCLS agar dilution method; format: functional
Helicobacter pylori [15] = assay: Antibacterial activity against Helicobacter pylori 05-3 assessed as growth inhibition after 16 to 18 hr NCCLS agar dilution method; format: functional
Helicobacter pylori [16] = assay: Antibacterial activity against Helicobacter pylori 05-4 assessed as growth inhibition after 16 to 18 hr NCCLS agar dilution method; format: functional, 05-Apr
Helicobacter pylori [17] = assay: Antibacterial activity against Helicobacter pylori 05-2 assessed as growth inhibition after 16 to 18 hr NCCLS agar dilution method; format: functional
Helicobacter pylori [18] = assay: Antibacterial activity against Helicobacter pylori 06-8 assessed as growth inhibition after 16 to 18 hr NCCLS agar dilution method; format: functional

Compound	MIC (Helicobacter pylori [1]) [µg/mL]	MIC (Helicobacter pylori [2]) [µg/mL]	MIC (Helicobacter pylori [3]) [µg/mL]	MIC (Staphylococcus aureus) [µg/mL]	MIC (Helicobacter pylori [4]) [µg/mL]	MIC (Escherichia coli) [µg/mL]	MIC (Helicobacter pylori [5]) [µg/mL]	MIC (Helicobacter pylori [6]) [µg/mL]	MIC (Helicobacter pylori [7]) [µg/mL]	MIC (Helicobacter pylori [8]) [µg/mL]	MIC50 (Helicobacter pylori [9]) [µg/mL]	MIC90 (Helicobacter pylori [9]) [µg/mL]	MIC (Pseudomonas aeruginosa) [µg/mL]	MIC (Helicobacter pylori [10]) [µg/mL]	MIC (Helicobacter pylori [11]) [µg/mL]	MIC (Helicobacter pylori [12]) [µg/mL]	MIC (Helicobacter pylori [13]) [µg/mL]	MIC (Helicobacter pylori [14]) [µg/mL]	MIC (Helicobacter pylori [15]) [µg/mL]	MIC (Helicobacter pylori [16]) [µg/mL]	also measured
CC[C@H]1OC(=O)[C@H](C)[C@@H](O[C@H]2C[C@@](C)(OC)[C@@H](O)[C@H](C)O2)[C@H](C)[C@@H](O[C@@H]2O[C@H](C)C[C@H](N(C)C)[C@H]2O)[C@](C)(OC)C[C@@H](C)C(=O)[C@H](C)[C@@H](O)[C@]1(C)O [CLARITHROMYCIN]	32 (≈ 42.8 µM)	64 (≈ 85.6 µM)	> 128	0.12 (≈ 0.16 µM)	> 128	32 (≈ 42.8 µM)	> 128	> 128	> 128	128 (≈ 171 µM)	> 128	> 128	> 64	> 128	> 128	> 128	> 128	128 (≈ 171 µM)	64 (≈ 85.6 µM)	> 128	MIC (Helicobacter pylori [17]): 64 µg/mL (≈ 85.6 µM); MIC (Helicobacter pylori [18]): > 128 µg/mL
Cc1ncc([N+](=O)[O-])n1CCO [METRONIDAZOLE]	32 (≈ 187 µM)	> 128	> 128	–	> 128	–	> 128	> 128	> 128	> 128	> 128	> 128	–	> 128	> 128	> 128	> 128	> 128	> 128	> 128	MIC (Helicobacter pylori [17]): > 128 µg/mL; MIC (Helicobacter pylori [18]): > 128 µg/mL
COc1ccc(C(=O)CC(O)S(=O)(=O)[O-])cc1.[Na+] (stereo not drawn)	> 128	> 128	> 128	> 64	> 128	> 64	> 128	> 128	> 128	> 128	> 128	> 128	> 64	> 128	> 128	> 128	> 128	> 128	> 128	> 128	MIC (Helicobacter pylori [17]): > 128 µg/mL; MIC (Helicobacter pylori [18]): > 128 µg/mL
CCO/N=C/CC(=O)c1ccc(OC(C)C)cc1	–	–	–	> 64	–	> 64	–	–	–	–	–	–	> 64	–	–	–	–	–	–	–	–
CO/N=C(/C/C=N/OC)c1ccc(OC)cc1	–	–	–	> 64	–	> 64	–	–	–	–	–	–	> 64	–	–	–	–	–	–	–	–
CCCCOc1ccc(/C(C/C=N/OCC)=N\OCC)cc1	–	–	–	> 64	–	> 64	–	–	–	–	–	–	> 64	–	–	–	–	–	–	–	–
CCO/N=C(/C/C=N/OCC)c1ccc(OCC)cc1	–	–	–	> 64	–	> 64	–	–	–	–	–	–	> 64	–	–	–	–	–	–	–	–
CO/N=C/CC(=O)c1ccc(OC(C)C)cc1	–	–	–	> 64	–	> 64	–	–	–	–	–	–	> 64	–	–	–	–	–	–	–	–
CO/N=C(/C/C=N/OC)c1ccc(OC(C)C)cc1	–	–	–	> 64	–	> 64	–	–	–	–	–	–	> 64	–	–	–	–	–	–	–	–
CCO/N=C(/C/C=N/OCC)c1ccc(OC)cc1	–	–	–	> 64	–	> 64	–	–	–	–	–	–	> 64	–	–	–	–	–	–	–	–
COc1ccc(C(=O)/C=C\O)cc1	128 (≈ 718 µM)	> 128	> 128	> 64	> 128	> 64	> 128	128 (≈ 718 µM)	> 128	128 (≈ 718 µM)	> 128	> 128	> 64	> 128	> 128	128 (≈ 718 µM)	> 128	128 (≈ 718 µM)	> 128	> 128	MIC (Helicobacter pylori [17]): > 128 µg/mL; MIC (Helicobacter pylori [18]): > 128 µg/mL
CCO/N=C(/C/C=N/OCC)c1ccc(OC(C)C)cc1	–	–	–	> 64	–	> 64	–	–	–	–	–	–	> 64	–	–	–	–	–	–	–	–

The next lines start with results.

MIC (Helicobacter pylori [1]) [µg/mL]	MIC (Helicobacter pylori [2]) [µg/mL]	MIC (Helicobacter pylori [3]) [µg/mL]	MIC (Staphylococcus aureus) [µg/mL]	MIC (Helicobacter pylori [4]) [µg/mL]	MIC (Escherichia coli) [µg/mL]	MIC (Helicobacter pylori [5]) [µg/mL]	MIC (Helicobacter pylori [6]) [µg/mL]	MIC (Helicobacter pylori [7]) [µg/mL]	MIC (Helicobacter pylori [8]) [µg/mL]	MIC50 (Helicobacter pylori [9]) [µg/mL]	MIC90 (Helicobacter pylori [9]) [µg/mL]	MIC (Pseudomonas aeruginosa) [µg/mL]	MIC (Helicobacter pylori [10]) [µg/mL]	MIC (Helicobacter pylori [11]) [µg/mL]	MIC (Helicobacter pylori [12]) [µg/mL]	MIC (Helicobacter pylori [13]) [µg/mL]	MIC (Helicobacter pylori [14]) [µg/mL]	MIC (Helicobacter pylori [15]) [µg/mL]	MIC (Helicobacter pylori [16]) [µg/mL]	Compound	also measured
64 (≈ 331 µM)	64 (≈ 331 µM)	> 128	4 (≈ 20.7 µM)	> 128	> 64	> 128	64 (≈ 331 µM)	> 128	64 (≈ 331 µM)	> 128	> 128	> 64	64 (≈ 331 µM)	> 128	> 128	> 128	64 (≈ 331 µM)	> 128	> 128	COc1ccc(C(=O)C/C=N/O)cc1	MIC (Helicobacter pylori [17]): > 128 µg/mL; MIC (Helicobacter pylori [18]): > 128 µg/mL
–	–	–	32 (≈ 145 µM)	–	> 64	–	–	–	–	–	–	> 64	–	–	–	–	–	–	–	CCOc1ccc(C(=O)C/C=N/OC)cc1	–
–	–	–	> 64	–	> 64	–	–	–	–	–	–	> 64	–	–	–	–	–	–	–	CCOc1ccc(/C(C/C=N/OC)=N\OC)cc1	–
–	–	–	> 64	–	> 64	–	–	–	–	–	–	64 (≈ 257 µM)	–	–	–	–	–	–	–	CCCCOc1ccc(C(=O)C/C=N/OC)cc1	–
–	–	–	> 64	–	> 64	–	–	–	–	–	–	> 64	–	–	–	–	–	–	–	CCCCOc1ccc(C(=O)C/C=N/OCC)cc1	–
> 128	> 128	> 128	> 64	> 128	> 64	> 128	> 128	> 128	128 (≈ 509 µM)	> 128	> 128	> 64	> 128	> 128	> 128	> 128	128 (≈ 509 µM)	> 128	> 128	COc1ccc(C(=O)C/C=N/NC(N)=S)cc1	MIC (Helicobacter pylori [17]): > 128 µg/mL; MIC (Helicobacter pylori [18]): > 128 µg/mL
> 128	> 128	> 128	> 64	> 128	> 64	> 128	> 128	> 128	128 (≈ 544 µM)	> 128	> 128	> 64	> 128	> 128	> 128	> 128	128 (≈ 544 µM)	> 128	> 128	COc1ccc(C(=O)C/C=N/NC(N)=O)cc1	MIC (Helicobacter pylori [17]): > 128 µg/mL; MIC (Helicobacter pylori [18]): > 128 µg/mL
–	–	–	4 (≈ 18.1 µM)	–	> 64	–	–	–	–	–	–	> 64	–	–	–	–	–	–	–	CCO/N=C/CC(=O)c1ccc(OC)cc1	–
–	–	–	64 (≈ 272 µM)	–	> 64	–	–	–	–	–	–	> 64	–	–	–	–	–	–	–	CCO/N=C/CC(=O)c1ccc(OCC)cc1	–
